Laboratory results reported in US20250366474A1, “USE OF 4,5-DIMETHYLTHIAZOLE IN PROMOTING PLANT GROWTH” (HUAZHONG AGRICULTURAL UNIVERSITY, priority 2024, published 2025).

Tested on: rice seedlings
Assay: 4,5-dimethylthiazole seed soaking: rice seedling dry matter mass and chlorophyll content
Type: in vivo, rice (Heliangyou 332)
Conditions: for Root System Biomass / Shoot Part Biomass / Total Biomass / Total Chlorophyll Content: 30 days of seedling cultivation; for Total Chlorophyll Content: leaves; for Root System Relative Value / Shoot Part Relative Value / Total Chlorophyll Content Relative Value / Total Relative Value: 30 days, vs distilled water soaking
Method: 4,5-dimethylthiazole of different weights were dissolved in distilled water to obtain seed soaking agents. Taking seed soaking with distilled water as a control, four seed soaking concentrations (0, 50, 100 and 200 mg/L) were set. Plump and healthy rice seeds (Heliangyou 332) were selected and sterilized with 0.5% sodium hypochlorite for 30 min, and then each seed soaking agent was added in a mass ratio of the seed soaking agent to seed of 1:20. The seeds were soaked in darkness under 28-30° C. condition for 48 h until radicle emergence. The seed soaking solutions were changed every 12 h. Rice substrate soil was loaded 2 cm away from a seedling tray opening, gently compacted, and watered with pure water to be wet. A rice seedling nursery substrate was “rice seedling nursery substrate” purchased from Guangzhou Shengsheng Agriculture Co., Ltd., with main ingredients including peat, vermiculite and yellow mud. Two seeds were sowed in each hole on a substrate surface, covered with the substrate soil again to the seedling tray opening, and watered to be wet. After 30 days of seedling cultivation, nine rice samples were taken from each treatment, divided into shoot parts and root system, which were dried and then weighed; and leaves were taken from another nine rice plants to measure chlorophyll content. […] Regarding the biomass of the shoot parts and the chlorophyll content, the seed soaking concentration 50 mg/L rendered the best effect (Table 2).

Cc1ncsc1C [4,5-dimethylthiazole]
Root System Biomass (seed soaking 50 mg/L): 8.3 mg/plant | Shoot Part Biomass (seed soaking 50 mg/L): 80.7 mg/plant | Total Biomass (seed soaking 50 mg/L): 89.1 mg/plant | Total Chlorophyll Content (seed soaking 50 mg/L): 4.08 mg/g | Root System Relative Value (seed soaking 50 mg/L): 52.6% | Shoot Part Relative Value (seed soaking 50 mg/L): 32.3% | Total Chlorophyll Content Relative Value (seed soaking 50 mg/L): 9.3% | Total Relative Value (seed soaking 50 mg/L): 34.0% | Root System Biomass (seed soaking 100 mg/L): 8.6 mg/plant | Shoot Part Biomass (seed soaking 100 mg/L): 78.4 mg/plant | Total Biomass (seed soaking 100 mg/L): 87.1 mg/plant | Total Chlorophyll Content (seed soaking 100 mg/L): 3.98 mg/g | Root System Relative Value (seed soaking 100 mg/L): 58.2% | Shoot Part Relative Value (seed soaking 100 mg/L): 28.5% | Total Chlorophyll Content Relative Value (seed soaking 100 mg/L): 6.7% | Total Relative Value (seed soaking 100 mg/L): 31.0% | Root System Biomass (seed soaking 200 mg/L): 7.8 mg/plant | Shoot Part Biomass (seed soaking 200 mg/L): 81.1 mg/plant | Total Biomass (seed soaking 200 mg/L): 88.9 mg/plant | Total Chlorophyll Content (seed soaking 200 mg/L): 3.99 mg/g | Root System Relative Value (seed soaking 200 mg/L): 42.9% | Shoot Part Relative Value (seed soaking 200 mg/L): 32.9% | Total Chlorophyll Content Relative Value (seed soaking 200 mg/L): 7.0% | Total Relative Value (seed soaking 200 mg/L): 33.7% | effect on biomass of the shoot parts and chlorophyll content, comparison of seed soaking concentrations (seed soaking concentration 50 mg/L): best effect
